A short description of data set [1]: Octanol-water partition coefficient, log KOW of the compound. The settings on record: read-out: log K. It is filed as physicochemical.
Data set [2] deals with Rattus norvegicus. In words: Anesthetic potency in Sprague-Dawley rat assessed as loss of righting reflex. It counts as functional.
The target in data set [3] is T1, Gamma-aminobutyric acid receptor subunit alpha-1 (Homo sapiens, UniProt P14867+P18507+P47870).
T1 sequence (P14867 whole entry): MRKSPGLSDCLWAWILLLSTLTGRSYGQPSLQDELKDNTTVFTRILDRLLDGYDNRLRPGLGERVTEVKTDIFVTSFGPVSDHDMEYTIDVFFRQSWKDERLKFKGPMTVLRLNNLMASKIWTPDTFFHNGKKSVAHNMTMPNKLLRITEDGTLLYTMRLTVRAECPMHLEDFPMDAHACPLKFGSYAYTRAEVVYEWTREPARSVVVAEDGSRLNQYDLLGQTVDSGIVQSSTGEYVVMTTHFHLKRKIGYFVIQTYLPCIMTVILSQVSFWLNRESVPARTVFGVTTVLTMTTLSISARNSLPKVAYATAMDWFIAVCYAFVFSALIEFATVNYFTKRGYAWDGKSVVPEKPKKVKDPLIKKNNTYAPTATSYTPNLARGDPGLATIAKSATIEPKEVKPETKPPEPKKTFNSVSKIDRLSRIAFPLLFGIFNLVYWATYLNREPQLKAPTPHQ
In words: Activity at human GABAA alpha-1-beta-2-gamma-2s receptor expressed in HEK293 cells assessed as effect on GABA-induced current at 3 uM by whole cell patch-clamp technique. It counts as cell-based. (In patch-clamp work, channel activity is measured electrically.)

Data set [4] is described as follows: Binding affinity to human serum albumin.
Data set [5] in a line: Chemical stability in aqueous solution assessed as hydrolysis after 4 hrs. It counts as physicochemical. The settings on record: read-out: Activity.
The test system of data set [6] is Rana temporaria. In words: Anesthetic potency in Rana temporaria tadpoles assessed as loss of righting reflex for 60 mins. The settings on record: 1 h.

Consider `CC(c1ccccc1)n1cncc1CO` (stereo unspecified), for which the logP in data set [1] was 1.28.

With `CC(c1ccccc1)n1cncc1C=O` (stereo unspecified), the logP in data set [1] was 1.77.

As usually defined, the ED50 is the dose at which the effect has come halfway, by size or by number of responders. One may read the EC50 as the concentration giving half of the maximal effect. The Kd is the constant that tells how readily two partners part at equilibrium. In the case of `C[C@H](c1ccccc1)n1cncc1C(=O)N=[N+]=[N-]`, the ED50 in data set [2] is 1.7 mg/kg. Also, the 50% effective concentration (EC50) in data set [3] was 11 µM. In data set [4], this molecule came in with a Kd of 121 µM.

`CC(c1ccccc1)n1cncc1C(=O)N=[N+]=[N-]` (stereo unspecified): the logP in data set [1] stood at 2.71. In addition, the degraded at 4 h in data set [5] worked out at 10%.

Turning to `CCOC(=O)c1cncn1[C@H](C)c1ccccc1` [ETOMIDATE], the logP in data set [1] was 2.89. The same molecule yielded a Kd in data set [4] of 176 µM.

Regarding `COC(=O)c1cncn1C(C)c1ccccc1` (stereo unspecified) [METOMIDATE], in data set [1], the logP stood at 2.28.

For `CCOC(=O)c1cncn1[C@@H](C)c1ccccc1` [S-ETOMIDATE], the EC50 in data set [6] was determined as 36 µM.

(Values after ChEMBL document CHEMBL1156442 (J Biol Chem, 2007).)
